# Results: PMC5829263, “Homoarginine and inhibition of human arginase activity: kinetic characterization and biological relevance” (Scientific Reports, 2018)
# Where “and” joins values, the source holds several entries; their conditions need not be identical. Equal values may be shown once. Read-outs that look alike come from different tables or passages of the source.
# Experiments:
# [1] = target: T1, recombinant human arginase 2 (Homo sapiens, UniProt P78540); assay: Arginase 2 activity assay, kinetics of ARG conversion to ORN; assay type: biochemical
# T1 sequence (P78540 23-354): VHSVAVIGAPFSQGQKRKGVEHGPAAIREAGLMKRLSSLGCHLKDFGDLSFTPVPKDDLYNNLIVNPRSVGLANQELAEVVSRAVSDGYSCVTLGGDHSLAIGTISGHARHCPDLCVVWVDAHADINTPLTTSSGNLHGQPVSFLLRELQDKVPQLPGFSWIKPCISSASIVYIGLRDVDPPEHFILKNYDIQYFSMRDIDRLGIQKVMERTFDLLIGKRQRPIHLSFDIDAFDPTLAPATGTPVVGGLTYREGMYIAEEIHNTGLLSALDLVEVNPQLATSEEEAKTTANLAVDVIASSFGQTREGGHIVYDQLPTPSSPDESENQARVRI
# arginase 2 = settings: cited from earlier work
# arginase 1 = settings: arginase 1; range previously reported; cited from earlier work
# [2] = target: T2, recombinant human arginase 1 (Homo sapiens, UniProt P05089); assay: Arginase 1 activity assay, kinetics of ARG conversion to ORN; assay type: biochemical; settings: conversion of ARG to ORN
# T2 sequence (P05089 1-322): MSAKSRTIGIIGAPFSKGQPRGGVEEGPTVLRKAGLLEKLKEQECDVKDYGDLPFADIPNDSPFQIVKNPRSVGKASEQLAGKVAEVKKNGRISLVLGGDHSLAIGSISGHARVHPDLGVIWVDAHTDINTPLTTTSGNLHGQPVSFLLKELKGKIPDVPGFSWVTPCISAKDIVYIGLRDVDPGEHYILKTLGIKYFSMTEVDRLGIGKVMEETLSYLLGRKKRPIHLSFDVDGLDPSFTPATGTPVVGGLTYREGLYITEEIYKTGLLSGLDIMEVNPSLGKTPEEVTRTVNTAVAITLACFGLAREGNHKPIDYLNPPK
# Description: Incubation mixtures contained HEK293T cell lysate expressing recombinant human arginase 1 (0.05 mg/mL) or arginase 2 (0.1 mg/mL), phosphate buffer (0.05 M, pH 7.4) and ARG (0 to 15 mM).
# (§1) Following a 5-min pre-equilibration period reactions were initiated by the addition of the cell lysate solution in 0.05 M phosphate buffer to a pre-equilibrated aqueous solution of the substrate (ARG).
# (§2) The samples were vortex mixed (20 sec) and cooled in an ice/water bath for 10 min prior to centrifugation (5 min, 18,000 × g, room temperature) to precipitate the proteins. An aliquot of the supernatant layer was diluted with a 7:3 mobile phase A/mobile phase B solution into glass UPLC vial inserts.
# Kinetic data are the mean of three singlicate experiments.
# [3] = target: T2, recombinant human arginase 1; assay: Arginase 1 inhibition, UPLC-MS measurement of ARG to ORN conversion in HEK293T cell lysate; settings: for remaining activity at 1 µM / remaining activity at 10 µM / remaining activity at 100 µM / remaining activity at 1000 µM / remaining activity at 10000 µM: read-out: % of control activity at the corresponding [Inhibitor] ± SE, arginase 1, mean of two experiments; for remaining activity at 1 µM: inhibitor 1 µM; for remaining activity at 10 µM: inhibitor 10 µM; for remaining activity at 100 µM: inhibitor 100 µM; for remaining activity at 1000 µM: inhibitor 1,000 µM; for remaining activity at 10000 µM: inhibitor 10,000 µM; for inhibition at 1000 µM: inhibitor 1 mM; for inhibition at 10000 µM: inhibitor 10 mM;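 for all read-outs here: arginase 1–expressing HEK293T lysate at 0.05 mg/mL in pH 7.4 phosphate buffer, inhibitor preincubated 5 min with enzyme, then reaction started by adding ARG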
# Description: as §1, §2
# (§3) Incubation mixtures comprised of HEK293T cell lysate expressing arginase 1 (0.05 mg/mL) or arginase 2 (0.1 mg/mL), phosphate buffer (0.05 M, pH 7.4), inhibitor (0, 0.1, 1, 10, 100, 1000 or 10000 μM) and ARG (0.1, 2 or 3 mM). Following a 5-min pre-incubation of the potential inhibitor with arginase 1 or arginase 2, reactions were initiated by the addition of a pre-equilibrated solution of the substrate ARG.
# Ki values were derived from fitting the competitive inhibition equation to experimental data. Ki data are the mean of three singlicate experiments.
# [4] = target: T1, recombinant human arginase 2; assay: Arginase 2 inhibition, UPLC-MS measurement of ARG to ORN conversion in HEK293T cell lysate; settings: for remaining activity at 1 µM / remaining activity at 10 µM / remaining activity at 100 µM / remaining activity at 1000 µM / remaining activity at 10000 µM: read-out: % of control activity at the corresponding [Inhibitor] ± SE, arginase 2, mean of two experiments; for remaining activity at 1 µM: inhibitor 1 µM; for remaining activity at 10 µM: inhibitor 10 µM; for remaining activity at 100 µM: inhibitor 100 µM; for remaining activity at 1000 µM: inhibitor 1,000 µM; for remaining activity at 10000 µM: inhibitor 10,000 µM; for inhibition at 1000 µM: inhibitor 1 mM; for inhibition at 10000 µM: inhibitor 10 mM;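 for all read-outs here: HEK293T lysate carrying arginase 2 at 0.1 mg/mL in 0.05 M phosphate buffer pH 7.4, inhibitor preincubated with enzyme 5 min before ARG addition started the reaction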
# Description: as §1, §2, §3
# Sample were diluted 3:17 in mobile phase solution prior injection.
# [5] = read-out: inhibition of arginase 1 activity, ARG 100 µM (physiological)
# [6] = read-out: inhibition of arginase 1 activity, ARG 3 mM (Km)
# [7] = read-out: inhibition of arginase 2, ARG 100 µM
# [8] = read-out: inhibition of arginase 2, ARG 2 mM
smiles,measurement,setting,value
"N=C(N)NCCC[C@H](N)C(=O)O [ARG, arginine]",Vmax (pmol·min^−1·mg^−1) ± SE,[1]; Expt 1,984 ± 8 pmol/min/mg
same,Km,"[1]; Expt 1, read-out: Km (mM) ± SE",2.4 ± 0.1 mM
same,Vmax (pmol·min^−1·mg^−1) ± SE,[1]; Expt 2,837 ± 12 pmol/min/mg
same,Km,"[1]; Expt 2, read-out: Km (mM) ± SE",1.7 ± 0.1 mM
same,Vmax (pmol·min^−1·mg^−1) ± SE,[1]; Expt 3,834 ± 5 pmol/min/mg
same,Km,"[1]; Expt 3, read-out: Km (mM) ± SE",1.8 ± 0.1 mM
same,Vmax (pmol·min^−1·mg^−1) ± SE,[1]; Mean,883 ± 16 pmol/min/mg
same,Km,"[1]; Mean, read-out: Km (mM) ± SE",1.9 ± 0.1 mM
same,Km,"arginase 2; arginase 2, range previously reported",1000 to 7000 µM
same,Km,arginase 1,1000 to 9000 µM
same,Vmax (nmol·min^−1·mg^−1) ± SE,[2]; Expt 1,37 ± 1 nmol/min/mg
same,Km,"[2]; Expt 1, read-out: Km (mM) ± SE",3.4 ± 0.4 mM
same,Vmax (nmol·min^−1·mg^−1) ± SE,[2]; Expt 2,32 ± 1 nmol/min/mg
same,Km,"[2]; Expt 2, read-out: Km (mM) ± SE",3.8 ± 0.2 mM
same,Vmax (nmol·min^−1·mg^−1) ± SE,[2]; Expt 3,35 ± 1 nmol/min/mg
same,Km,"[2]; Expt 3, read-out: Km (mM) ± SE",3.5 ± 0.2 mM
same,Vmax (nmol·min^−1·mg^−1) ± SE,[2]; Mean,34 ± 1 nmol/min/mg
"NCCCC[C@H](N)C(=O)O [LYS, lysine]",Ki,"arginase 2; arginase 2 inhibition, ref Colleluori et al. 15",7000 µM
same,inhibitory effect on arginase 1 activity at physiological inhibitor concentrations,"[3]; LYS 100–1000 µM, HOMOARG 1–10 µM",no significant inhibitory effects
same,inhibition model fitting the data,"[3]; arginase 1, poorly fit by uncompetitive, noncompetitive and mixed models",competitive
same,remaining activity at 1 µM,[3]; ARG 100 µM,88 ± 21%
same,remaining activity at 10 µM,[3]; ARG 100 µM,89 ± 10%
same,remaining activity at 100 µM,[3]; ARG 100 µM,105 ± 18%
same,remaining activity at 1000 µM,[3]; ARG 100 µM,56 ± 5%
same,remaining activity at 10000 µM,[3]; ARG 100 µM,19 ± 1%
same,remaining activity at 1 µM,[3]; ARG 3 mM,108 ± 13%
same,remaining activity at 10 µM,[3]; ARG 3 mM,103 ± 10%
same,remaining activity at 100 µM,[3]; ARG 3 mM,82 ± 4%
same,remaining activity at 1000 µM,[3]; ARG 3 mM,63 ± 8%
same,remaining activity at 10000 µM,[3]; ARG 3 mM,22 ± 1%
same,inhibition at 1000 µM,[3]; [5],44%
same,inhibition at 10000 µM,[3]; [5],81%
same,inhibition at 1000 µM,[3]; [6],39%
same,inhibition at 10000 µM,[3]; [6],78%
same,Ki,[4],500 ± 30 µM
same,IC50,"[4]; IC50 ( ± SE), arginase 2, ARG 2 mM",900 µM and 880 µM
same,inhibition model fitting the data,"[4]; arginase 2, poorly fit by uncompetitive, noncompetitive and mixed models",competitive
same,inhibition of arginase 2 at physiological inhibitor concentrations,[4]; physiological LYS and HOMOARG concentrations,no significant inhibition
same,remaining activity at 1 µM,[4]; ARG 100 µM,92 ± 6%
same,remaining activity at 10 µM,[4]; ARG 100 µM,97 ± 5%
same,remaining activity at 100 µM,[4]; ARG 100 µM,78 ± 11%
same,remaining activity at 1000 µM,[4]; ARG 100 µM,56 ± 14%
same,remaining activity at 10000 µM,[4]; ARG 100 µM,12 ± 4%
same,remaining activity at 1 µM,[4]; ARG 2 mM,88 ± 6%
same,remaining activity at 10 µM,[4]; ARG 2 mM,82 ± 6%
same,remaining activity at 100 µM,[4]; ARG 2 mM,84 ± 5%
same,remaining activity at 1000 µM,[4]; ARG 2 mM,58 ± 1%
same,remaining activity at 10000 µM,[4]; ARG 2 mM,33 ± 4%
same,inhibition at 1000 µM,[4]; [7],44%
same,inhibition at 10000 µM,[4]; [7],88%
same,inhibition at 1000 µM,[4]; [8],42%
same,inhibition at 10000 µM,[4]; [8],67%
